Experimental data from patent publication US20040087559A1, “Methods for prevention and treatment of cancer” (priority 1999, published 2004).
Entries after “also recorded” stand apart in the source; their conditions may differ. Read-outs that look alike come from different tables or passages of the source.

Tests used:
[1] = system: human prostate cancer cells; conditions: cited from earlier work
human bone cells = human bone cells (extra-renal site); cited from earlier work
[2] = system: HEP 62 hepatoma cell line; conditions: cited from earlier work
[3] = system: human T-lymphotrophic virus-transformed lymphocytes; conditions: cited from earlier work
[4] = system: renal proximal tubular cells; conditions: primary cultures of renal proximal tubular cells; cited from earlier work
[5] = system: normal human keratinocytes transfected with 1α-OHase cDNA; assay: [3H]thymidine incorporation of human keratinocytes transfected with 1α-OHase cDNA; type: cell-based
Procedure: FIG. 6 depicts a graph showing the effect of 25(OH)D3 concentration on the proliferative activity of normal human keratinocytes transfected with 1α-OHase cDNA. Cultured human keratinocytes transfected with a vector containing the 1α-OHase cDNA as described were incubated with 25(OH)D3 at different concentrations (1 nM, 10 nM, 100 nM) for 18 hours. [^3H]thymidine incorporation was measured as described. ●-: [^3H]thymidine incorporation of cells not transfected (“Control”); ∘-∘: [^3H]thymidine incorporation of cells transfected with vector containing 1α-OHase cDNA (“1α-OHase transfection”).
(F) Keratinocyte transfection. Keratinocytes were maintained in MCDB-153 medium. Cells in 24-well dishes at 50%-60% confluence were transfected with […] of 1α-OHase cDNA which had been subcloned into pCR3.1 vector (INVITROGEN). Empty vector was used as a control. For each transfection, 1.0 μg was diluted in 100 μl of medium containing 6-8 μl Plus Reagent. This mixture was incubated for 15 minutes at room temperature. […] [^3H]thymidine was added to the cultures and [^3H]thymidine incorporation into the DNA (interpreted as a measure of the DNA synthetic activity, i.e. proliferation of the cells) was measured as previously described (Chen, T. C., et al., J Nutr. Biochem. 4:49-57 (1993)). […]

1α-OHase [6] = molecular target: T1, 1α-OHase (Homo sapiens, UniProt O15528); conditions: PC-3
T1 sequence (O15528 1-508): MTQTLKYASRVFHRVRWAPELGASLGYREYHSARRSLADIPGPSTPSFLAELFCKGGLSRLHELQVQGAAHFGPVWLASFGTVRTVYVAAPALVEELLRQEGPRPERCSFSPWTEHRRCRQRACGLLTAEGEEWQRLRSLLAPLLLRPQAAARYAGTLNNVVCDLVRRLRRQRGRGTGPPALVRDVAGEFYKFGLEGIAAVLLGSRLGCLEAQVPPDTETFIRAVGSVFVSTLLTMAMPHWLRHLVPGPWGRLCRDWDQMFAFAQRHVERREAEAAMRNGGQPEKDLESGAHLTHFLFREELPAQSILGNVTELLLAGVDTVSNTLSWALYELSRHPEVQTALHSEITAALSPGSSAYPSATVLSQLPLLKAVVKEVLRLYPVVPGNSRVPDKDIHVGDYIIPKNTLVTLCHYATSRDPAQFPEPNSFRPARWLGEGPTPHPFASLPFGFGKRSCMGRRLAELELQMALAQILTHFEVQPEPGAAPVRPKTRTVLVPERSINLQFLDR
Procedure: (§1) (A) Cell Lines. DU 145, PC-3, and LNCaP cell lines were obtained from the American Type Culture Collection, Rockville, Md. All cell lines were tested and found to be free of Mycoplasma contamination.
(§2) (B) Culture Conditions. Prostate cancer cell lines were cultured following several passages in vitro. Cells were routinely cultured in complete medium (RPMI 1640 medium supplemented with fetal bovine serum (10%., HyClone Labs, Logan Utah) and gentamicin (10 μg/ml, Life Technologies, Inc., Gaithersburg, Md.)). Cells were seeded in 35 mm culture dishes (Corning-Costar, Cambridge, Mass.) at 1×10^5 cells/dish in complete medium. Medium was changed to a serum-free medium (RPMI 1640 containing insulin (10 μg/ml), transferrin ( 10 μg/ml) and selenous acid (1 ng/ml)) 24 hours before adding 25(OH)D3.

1α-OHase [7] = molecular target: T1, 1α-OHase; conditions: BPH cultures; clotrimazole 20 μM; 25(OH)D3 50 nM, [3H]-25(OH)D3, DPPD 10 μM, 2 h 37° C. (FIG. 5)
Procedure: (§3) In addition, 1α-OHase activity was determined by using a radioactive metabolite, [^3H]-25(OH)D, as substrate.
Second passage of prostate cells derived from BPH cultures were incubated with nonradioactive 25(OH)D3 (50 nM), [^3H]-25(OH)D3 (0.91 μCi/nmol) and DPPD (10 μM) at 37° C. for two hours in the absence of clotrimazole (20 μM).

1α-OHase [8] = molecular target: T1, 1α-OHase; conditions: NP96-5; clotrimazole 20 μM; 25(OH)D3 50 nM, 2 h 37° C.
Description: (§4) Primary cultures of human prostatic epithelial cells were established and characterized as described by Lokeshwar et al., Cancer Res. 53:4493-4498 (1993). Prostatic epithelial cells cultured in a serum-free defined medium (Mammary Epithelial Growth Medium (MEGM), Clontech, San Diego, Calif.) express luminal epithelium specific cytokeratins (cytokeratins 8 and 18) as detected immunohistochemically using an anti-cytokeratin antibody, CAM 5.2 (Becton-Dickinson, Mountain View, Calif.). The serum-free medium contains MCDF170 supplemented with Epidermal Growth Factor, 25 ng/ml, hydrocortisone, 0.5 μg/ml, ethanolamine, 1×10^−4, insulin, 5 μg/ml, transferrin, 5 μg/ml, and whole bovine pituitary extract, 70 μg/ml.
(§5) Prostatic cells used were at their first passage in vitro and were cultured in the serum-free RPMI medium during incubation with vitamin D metabolites. […] Histological examination of adjacent tissue sections taken from specimens used for cultures confirmed their identity as normal or BPH cultures.

1α-OHase [9] = molecular target: T1, 1α-OHase; type: cell-based; set-up: two primary cultures of cells, NP96-5 and BPH96-11, derived from noncancerous human prostates; endogenous in cells; host or cells: primary human prostatic epithelial cultures NP96-5 (normal prostate) and BPH96-11 (BPH); conditions: Human keratinocytes; clotrimazole 20 μM; 25(OH)D3 50 nM, 2 h 37° C.
1α-OHase [10] = molecular target: T1, 1α-OHase; conditions: BPH96-11; clotrimazole 20 μM; 25(OH)D3 50 nM, 2 h 37° C.
Description: as §4, §5

1α-OHase [11] = molecular target: T1, 1α-OHase; conditions: LNCaP; clotrimazole 20 μM; 25(OH)D3 50 nM, 2 h 37° C.
Procedure: as §1, §2

1α-OHase [12] = molecular target: T1, 1α-OHase; conditions: normal human prostate cells; clotrimazole 20 μM; 25(OH)D3 50 nM, [3H]-25(OH)D3, DPPD 10 μM, 2 h 37° C. (FIG. 3)
Procedure: as §3
Second passage of normal human prostate cells incubated with nonradioactive 25(OH)D3 (50 nM), [^3H]-25(OH)D3 (0.91 μCi/nmol) and 1,2-dianilinoethane (DPPD) (10 μM) at 37° C. for two hours in the absence of clotrimazole (20 μM) is shown in FIG. 2.
Second passage of normal human prostate cells were also incubated with nonradioactive 25(OH)D3 (50 nM), [^3H]-25(OH)D3 (0.91 μCi/nmol) and DPPD (10 μM) at 37° C. for two hours in the presence of clotrimazole (20 μM) in the presence of the cytochrome P450 inhibitor (clotrimazole).

1α-OHase [13] = molecular target: T1, 1α-OHase; conditions: DU 145
Procedure: as §1, §2

[14] = clotrimazole 20 μM, 25(OH)D3 50 nM, 2 h 37° C.

C=C1/C(=C\C=C2/CCC[C@]3(C)[C@@H]([C@H](C)CCCC(C)(C)O)CC[C@@H]23)C[C@@H](O)C[C@@H]1O [1,25(OH)2D, 1,25-dihydroxyvitamin D]
Level of 1,25(OH)2D that can significantly inhibit invasiveness ([1]; artificial basement membrane composed of human amnions): ≥ 10^−11 M | effect on invasiveness of DU 145 cells ([1]; physiological levels of 1,25(OH)2D, DU 145, correlated with decrease in secreted type IV collagenase (MMP-2 and MMP-9)): significantly inhibit the invasiveness | 1,25(OH)2D produced (human bone cells): 0.068 pmol/mg protein/hr | 1,25(OH)2D produced [2]: 2.3 pmol/mg protein/hr | 1,25(OH)2D produced [3]: 1.6 pmol/mg protein/hr | 1α-OHase enzyme activity [4]: 5.3-5.6 pmol/hr/mg protein

C=C1CC[C@H](O)C/C1=C/C=C1\CCC[C@]2(C)[C@@H]([C@H](C)CCCC(C)(C)O)CC[C@@H]12 [25(OH)D, 25-hydroxyvitamin D]
proliferative activity of transfected vs non-transfected control keratinocytes ([5]; 25(OH)D 10^−9 to 10^−7M, 18 hours (FIG. 6)): more marked decrease in proliferative activity | reduction in the proliferative activity ([3H]thymidine incorporation) ([5]; 25(OH)D at 10^−7 M, 18 hours, cells transfected with 1α-OHase gene compared to untransfected keratinocytes, p<0.01): 53.7%

Clc1ccccc1C(c1ccccc1)(c1ccccc1)n1ccnc1 [clotrimazole]
inhibition of 1,25(OH)2D production (1α-OHase [6]; clotrimazole): 100% | 1,25(OH)2D Produced, P-450 Inhibitor Present (1α-OHase [6]; [14]): completely inhibited; also recorded: undetectable | 1,25(OH)2D metabolite level in the presence of clotrimazole (tritium activity, HPLC) (1α-OHase [7]): less than 200 cpm | 1,25(OH)2D Produced, P-450 Inhibitor Present (1α-OHase [8]): completely inhibited; also recorded: undetectable | 1,25(OH)2D Produced, P-450 Inhibitor Present (1α-OHase [9]): completely inhibited; also recorded: undetectable | 1,25(OH)2D Produced, P-450 Inhibitor Present (1α-OHase [10]): completely inhibited; also recorded: undetectable | 1,25(OH)2D Produced, P-450 Inhibitor Present (1α-OHase [11]): undetectable | 1,25(OH)2D synthesis in the presence of clotrimazole (HPLC) (1α-OHase [12]): undetectable | inhibition of 1,25(OH)2D production (1α-OHase [13]; clotrimazole): 100% | 1,25(OH)2D Produced, P-450 Inhibitor Present (1α-OHase [13]; [14]): completely inhibited; also recorded: undetectable
